Experimental data taken from ChEMBL document CHEMBL1629464, “Aldehyde oxidase: an enzyme of emerging importance in drug discovery” (J Med Chem, 2010).

Assays:
[1] = biological target: T1, Aldehyde oxidase 1 (Mus musculus, UniProt O54754); experiment: Inhibition of mouse aldehyde oxidase
T1 sequence (O54754 whole entry): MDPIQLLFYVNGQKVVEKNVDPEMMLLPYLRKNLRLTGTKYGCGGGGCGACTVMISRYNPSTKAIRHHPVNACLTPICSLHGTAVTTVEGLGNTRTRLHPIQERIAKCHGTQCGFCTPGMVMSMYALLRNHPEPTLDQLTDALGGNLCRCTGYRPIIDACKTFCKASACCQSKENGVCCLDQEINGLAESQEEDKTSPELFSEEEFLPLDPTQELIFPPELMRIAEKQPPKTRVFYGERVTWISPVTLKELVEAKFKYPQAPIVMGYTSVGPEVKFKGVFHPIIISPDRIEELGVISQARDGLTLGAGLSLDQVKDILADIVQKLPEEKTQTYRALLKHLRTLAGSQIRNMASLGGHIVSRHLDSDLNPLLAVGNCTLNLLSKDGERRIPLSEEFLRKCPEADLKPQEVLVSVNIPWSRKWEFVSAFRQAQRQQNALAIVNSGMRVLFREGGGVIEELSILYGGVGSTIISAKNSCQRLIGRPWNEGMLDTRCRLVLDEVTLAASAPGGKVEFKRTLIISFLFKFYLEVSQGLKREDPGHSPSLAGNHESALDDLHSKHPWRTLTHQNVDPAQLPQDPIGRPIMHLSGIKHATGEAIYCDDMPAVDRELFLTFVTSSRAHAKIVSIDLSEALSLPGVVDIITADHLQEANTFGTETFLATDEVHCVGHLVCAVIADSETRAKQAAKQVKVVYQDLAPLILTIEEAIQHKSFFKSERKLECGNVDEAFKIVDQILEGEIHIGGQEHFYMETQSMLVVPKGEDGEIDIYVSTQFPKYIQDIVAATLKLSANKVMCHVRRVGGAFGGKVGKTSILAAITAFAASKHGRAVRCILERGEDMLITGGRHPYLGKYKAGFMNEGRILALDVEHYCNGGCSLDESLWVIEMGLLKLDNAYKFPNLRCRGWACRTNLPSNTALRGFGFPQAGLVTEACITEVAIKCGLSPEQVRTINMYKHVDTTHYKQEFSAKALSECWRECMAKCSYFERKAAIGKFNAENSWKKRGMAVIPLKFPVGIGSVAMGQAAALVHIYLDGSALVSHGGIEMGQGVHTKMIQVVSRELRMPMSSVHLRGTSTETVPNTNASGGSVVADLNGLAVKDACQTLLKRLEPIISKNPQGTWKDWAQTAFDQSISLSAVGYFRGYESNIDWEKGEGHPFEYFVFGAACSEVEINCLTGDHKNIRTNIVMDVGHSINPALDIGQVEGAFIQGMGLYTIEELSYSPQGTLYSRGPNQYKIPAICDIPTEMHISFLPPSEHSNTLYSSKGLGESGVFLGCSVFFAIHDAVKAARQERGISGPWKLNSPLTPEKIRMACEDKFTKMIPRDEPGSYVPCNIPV

[2] = biological target: T2, Aldehyde oxidase 1 (Rattus norvegicus, UniProt Q9Z0U5); experiment: Inhibition of rat aldehyde oxidase
T2 sequence (Q9Z0U5 whole entry): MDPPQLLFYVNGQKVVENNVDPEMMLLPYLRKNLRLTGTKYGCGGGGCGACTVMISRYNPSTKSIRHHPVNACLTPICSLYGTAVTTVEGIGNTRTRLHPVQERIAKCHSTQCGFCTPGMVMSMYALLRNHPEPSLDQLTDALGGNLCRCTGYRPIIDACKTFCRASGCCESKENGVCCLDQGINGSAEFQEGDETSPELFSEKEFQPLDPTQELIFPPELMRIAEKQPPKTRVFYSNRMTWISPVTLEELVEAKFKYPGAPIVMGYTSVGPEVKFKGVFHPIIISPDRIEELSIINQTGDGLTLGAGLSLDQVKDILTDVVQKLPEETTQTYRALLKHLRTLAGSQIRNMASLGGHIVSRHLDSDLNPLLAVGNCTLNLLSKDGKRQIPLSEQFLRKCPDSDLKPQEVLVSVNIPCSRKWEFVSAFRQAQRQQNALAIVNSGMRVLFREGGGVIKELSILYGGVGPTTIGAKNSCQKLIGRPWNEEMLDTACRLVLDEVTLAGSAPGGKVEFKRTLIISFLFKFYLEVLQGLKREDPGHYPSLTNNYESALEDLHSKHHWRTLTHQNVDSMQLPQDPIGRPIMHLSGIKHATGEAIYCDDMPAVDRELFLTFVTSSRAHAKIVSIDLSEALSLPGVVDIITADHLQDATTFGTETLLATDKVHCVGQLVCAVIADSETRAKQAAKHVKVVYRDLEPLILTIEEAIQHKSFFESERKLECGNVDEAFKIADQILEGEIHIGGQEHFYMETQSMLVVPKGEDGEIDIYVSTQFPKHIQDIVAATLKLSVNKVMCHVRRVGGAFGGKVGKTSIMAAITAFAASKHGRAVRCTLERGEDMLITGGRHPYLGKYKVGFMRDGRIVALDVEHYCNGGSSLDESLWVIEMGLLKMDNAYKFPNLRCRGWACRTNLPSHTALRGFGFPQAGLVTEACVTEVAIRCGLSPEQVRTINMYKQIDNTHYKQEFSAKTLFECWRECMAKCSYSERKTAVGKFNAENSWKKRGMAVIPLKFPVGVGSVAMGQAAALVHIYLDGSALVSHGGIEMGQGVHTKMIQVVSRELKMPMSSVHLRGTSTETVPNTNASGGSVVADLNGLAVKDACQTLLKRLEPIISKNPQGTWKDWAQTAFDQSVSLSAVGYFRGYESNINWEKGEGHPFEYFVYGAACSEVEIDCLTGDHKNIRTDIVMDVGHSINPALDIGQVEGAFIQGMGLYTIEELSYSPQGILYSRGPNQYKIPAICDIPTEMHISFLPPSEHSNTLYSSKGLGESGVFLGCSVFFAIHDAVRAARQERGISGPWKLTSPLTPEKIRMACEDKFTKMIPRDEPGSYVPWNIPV

[3] = biological target: T3, Aldehyde oxidase 1 (Macaca fascicularis, UniProt Q5FB27); experiment: Inhibition of monkey aldehyde oxidase
T3 sequence (Q5FB27 whole entry): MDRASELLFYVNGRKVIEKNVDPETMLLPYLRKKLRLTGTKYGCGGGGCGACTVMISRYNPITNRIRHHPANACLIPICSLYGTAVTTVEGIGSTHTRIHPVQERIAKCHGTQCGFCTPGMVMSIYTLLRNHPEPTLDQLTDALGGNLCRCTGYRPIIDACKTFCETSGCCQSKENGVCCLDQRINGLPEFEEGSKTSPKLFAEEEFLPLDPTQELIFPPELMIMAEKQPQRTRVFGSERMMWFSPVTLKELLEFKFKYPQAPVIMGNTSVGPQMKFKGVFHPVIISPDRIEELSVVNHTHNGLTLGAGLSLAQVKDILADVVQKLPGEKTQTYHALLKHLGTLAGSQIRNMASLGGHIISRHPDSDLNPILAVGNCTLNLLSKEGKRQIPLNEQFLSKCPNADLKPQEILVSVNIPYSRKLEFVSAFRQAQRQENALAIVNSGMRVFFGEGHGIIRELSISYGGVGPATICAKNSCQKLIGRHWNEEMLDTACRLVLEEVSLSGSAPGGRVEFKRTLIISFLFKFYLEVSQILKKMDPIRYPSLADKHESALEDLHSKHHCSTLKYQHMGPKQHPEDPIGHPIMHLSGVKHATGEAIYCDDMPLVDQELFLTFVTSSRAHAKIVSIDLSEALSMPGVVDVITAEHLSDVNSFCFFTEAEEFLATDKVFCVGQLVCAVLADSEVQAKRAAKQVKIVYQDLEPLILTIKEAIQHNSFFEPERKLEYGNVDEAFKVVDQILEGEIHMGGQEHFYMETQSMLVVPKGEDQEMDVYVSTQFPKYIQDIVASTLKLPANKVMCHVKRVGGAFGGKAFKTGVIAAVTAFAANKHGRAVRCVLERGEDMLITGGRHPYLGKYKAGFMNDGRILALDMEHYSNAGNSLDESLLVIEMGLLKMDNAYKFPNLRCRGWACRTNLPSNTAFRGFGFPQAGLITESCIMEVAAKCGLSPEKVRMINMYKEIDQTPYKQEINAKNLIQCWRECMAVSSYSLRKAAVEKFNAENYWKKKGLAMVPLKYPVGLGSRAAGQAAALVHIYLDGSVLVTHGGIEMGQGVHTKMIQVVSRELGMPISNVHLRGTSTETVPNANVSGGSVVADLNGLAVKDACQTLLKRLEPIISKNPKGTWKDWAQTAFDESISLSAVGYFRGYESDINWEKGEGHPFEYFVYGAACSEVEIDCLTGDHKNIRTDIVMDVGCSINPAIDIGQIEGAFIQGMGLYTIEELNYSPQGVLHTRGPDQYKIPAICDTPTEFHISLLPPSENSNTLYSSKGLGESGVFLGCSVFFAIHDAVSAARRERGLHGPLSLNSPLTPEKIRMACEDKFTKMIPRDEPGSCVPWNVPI

[4] = tested on: Homo sapiens; experiment: In-vivo intrinsic clearance in human; type: ADME, organism-based
[5] = Oral bioavailability in dog; type: ADME, organism-based, Canis lupus familiaris; conditions: in vivo

## O=C(c1ccc(OCCN2CCCCC2)cc1)c1c(-c2ccc(O)cc2)sc2cc(O)ccc12 [RALOXIFENE]
[1]
  IC50: 500 nM
[2]
  IC50: 1100 nM
[3]
  IC50: 500 nM

## CCN(C(C)=O)c1cccc(-c2ccnc3c(C#N)cnn23)c1 [ZALEPLON]
[4]
  CL: 90 mL/min/kg

## CCNC(=O)OC1CCN(c2n[nH]c(=O)c3cc(OC)c(OC)cc23)CC1
[5]
  bioavailability: 68%
